Consider 25 compounds from patent publication US7576222B2, “Alkynyl-containing tryptophan derivative inhibitors of TACE/matrix metalloproteinase” (priority 2004, dated 2009).

The target of the first test is T1, catalytic domain of the recombinant TACE protein (Homo sapiens, UniProt P78536).
T1 construct: The catalytic domain of the recombinant TACE protein was expressed and purified; made in house
T1 sequence (P78536 223-474 limits assumed): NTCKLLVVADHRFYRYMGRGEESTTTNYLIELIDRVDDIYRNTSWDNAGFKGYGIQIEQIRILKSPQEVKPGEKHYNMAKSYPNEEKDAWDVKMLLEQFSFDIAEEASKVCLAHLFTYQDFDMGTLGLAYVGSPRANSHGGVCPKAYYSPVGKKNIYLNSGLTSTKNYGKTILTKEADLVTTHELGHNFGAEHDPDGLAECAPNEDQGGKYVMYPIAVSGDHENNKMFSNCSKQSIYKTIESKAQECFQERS
The test can be described thus: TACE FRET assay using TACE cat. The test is classed as biochemical.
Conditions: not given
The method, then: TACE FRET Assay Using TACE Cat
“K” is the IC50. Generally, “n” and “B” are floated, noting that n (Hill slope) should be close to 1 and B (background offset) to 0.
Pro-TNF-α substrate peptide Abz-[…]-Dpa (AnaSpec, San Jose, Calif., WARC-1) was prepared as a 2 mM stock solution in the TACE assay buffer (50 mM Tris-HCl, pH 7.4, 25 mM NaCl, 4% Glycerol, 0.005% Brij 35). The catalytic domain of the recombinant TACE protein was expressed and purified. The TACE protein (1 ug/ml) was pretreated with the inhibitors at various concentrations for 10 min. at room temperature. The reaction was initiated by the addition of the substrate peptide. […] The initial rate (slope) of the reaction was determined using a fluorescence plate reader (Molecular Devices, Spectra Max Gemini XS).
As for `CC#CCOc1ccc(S(=O)(=O)N[C@@H](Cc2c(C)n(Cc3cccc(OC)c3)c3ccc(OC)cc23)C(=O)O)cc1` [Example 190, N-{[4-(but-2-ynyloxy)phenyl]sulfonyl}-5-methoxy-1-(3-methoxybenzyl)-2-methyltryptophan], the IC50 – broadly, the concentration at which inhibition is half-maximal – turned out to be 0.26 µM.
On to `CC#CCOc1ccc(S(=O)(=O)N[C@@H](Cc2c(C)n(Cc3cccc(C#N)c3)c3ccc(OC)cc23)C(=O)O)cc1` [Example 204, N-{[4-(but-2-ynyloxy)phenyl]sulfonyl}-1-(3-cyanobenzyl)-5-methoxy-2-methyltryptophan], for which the IC50 came out at 0.48 µM.
On the same count and under the same terms, as for `CC#CCOc1ccc(S(=O)(=O)N[C@H](Cc2cn(Cc3ccc(C#N)cc3)c3ccccc23)C(=O)O)cc1` [Example 45, N-{[4-(but-2-ynyloxy)phenyl]sulfonyl}-1-(4-cyanobenzyl)-D-tryptophan], the figure is 4.04 µM.
Regarding `CC#CCOc1ccc(S(=O)(=O)N[C@@H](Cc2c[nH]c3cc(C)ccc23)C(=O)O)cc1` [Example 8, N-{[4-(but-2-ynyloxy)phenyl]sulfonyl}-6-methyltryptophan], the IC50 was 1.57 µM.
As for `CC#CCOc1ccc(S(=O)(=O)N[C@@H](Cc2cn(Cc3ccc4c(c3)OCO4)c3ccc(OC)cc23)C(=O)O)cc1` [Example 65, 1-(1,3-benzodioxol-5-ylmethyl)-N-{[4-(but-2-ynyloxy)phenyl]sulfonyl}-5-methoxytryptophan], the IC50 came out at 1.5 µM.
With `CC#CCOc1ccc(S(=O)(=O)N[C@@H](Cc2c[nH]c3cc(F)ccc23)C(=O)O)cc1` [Example 7, N-{[4-(but-2-ynyloxy)phenyl]sulfonyl}-6-fluorotryptophan], the IC50 came to 2.96 µM.

The test is the same for the next values; noted with them: TACE FRET assay, catalytic domain of recombinant TACE; read-out: TACE IC50.
For `C=CCOc1ccc(Cn2cc(C[C@@H](NS(=O)(=O)c3ccc(OCC#CC)cc3)C(=O)O)c3ccccc32)cc1` [Example 216, 1-[4-(allyloxy)benzyl]-N-{[4-(but-2-ynyloxy)phenyl]sulfonyl}-D-tryptophan], the IC50 was found to be 0.54 µM.
On to `CC#CCOc1ccc(S(=O)(=O)N[C@H](Cc2cn(Cc3ccccc3)c3ccccc23)C(=O)O)cc1` [Example 25, 1-benzyl-N-{[4-(but-2-ynyloxy)phenyl]sulfonyl}-D-tryptophan], for which the concentration for half-maximal inhibition (IC50) is 2.15 µM.

The test is the same for the next values; noted with them: read-out: TACE Inhibition (%).
Take `CC#CCOc1ccc(S(=O)(=O)N[C@@H](Cc2cn(Cc3ccc(OC)cc3)c3ccc(C(=O)O)cc23)C(=O)O)cc1` [Example 109, N-{[4-(but-2-ynyloxy)phenyl]sulfonyl}-5-carboxy-1-(4-methoxybenzyl)tryptophan]: the inhibition – broadly, the relative decrease from the control value, in per cent – at 1 µM turned out to be 7.93%.
Same read-out and setting: as for `CC#CCOc1ccc(S(=O)(=O)N[C@@H](Cc2cn(CC3CCC3)c3ccc(Cl)cc23)C(=O)O)cc1` [Example 86, N-{[4-(but-2-ynyloxy)phenyl]sulfonyl}-5-chloro-1-(cyclobutylmethyl)tryptophan], the figure is 15.7%; as for `CC#CCOc1ccc(S(=O)(=O)N[C@@H](Cc2c(C)n(Cc3cccc(OC(F)(F)F)c3)c3ccc(OC)cc23)C(=O)O)cc1` [Example 194, N-{[4-(but-2-ynyloxy)phenyl]sulfonyl}-5-methoxy-2-methyl-1-[3-(trifluoromethoxy)benzyl]tryptophan], 80.8%.
On to `CC#CCOc1ccc(S(=O)(=O)N[C@@H](Cc2cn(Cc3cc(F)cc(F)c3)c3ccc(OC)cc23)C(=O)O)cc1` [Example 61, N-{[4-(but-2-ynyloxy)phenyl]sulfonyl}-1-(3,5-difluorobenzyl)-5-methoxytryptophan], for which the inhibition at 1 µM amounted to 39.5%.
On the same count and under the same terms, as for `CC#CCOc1ccc(S(=O)(=O)N[C@@H](Cc2cn(CC(C)C)c3ccc(Cl)cc23)C(=O)O)cc1` [Example 85, N-{[4-(but-2-ynyloxy)phenyl]sulfonyl}-5-chloro-1-isobutyltryptophan], the figure is 32.9%; as for `CC#CCOc1ccc(S(=O)(=O)N[C@@H](Cc2c(C)n(Cc3ccc(Cl)cc3)c3ccccc23)C(=O)O)cc1` [Example 156, N-{[4-(but-2-ynyloxy)phenyl]sulfonyl}-1-(4-chlorobenzyl)-2-methyltryptophan], 43.3%; as for `CC#CCOc1ccc(S(=O)(=O)N[C@@H](Cc2cn(Cc3ccc(C(C)C)cc3)c3ccc(C#N)cc23)C(=O)O)cc1` [Example 142, N-{[4-(but-2-ynyloxy)phenyl]sulfonyl}-5-cyano-1-(4-isopropylbenzyl)tryptophan], 8.34%.
Still for that read-out and setting: as for `CC#CCOc1ccc(S(=O)(=O)N[C@@H](Cc2c(C)n(Cc3cc(F)cc(F)c3)c3ccc(OC)cc23)C(=O)O)cc1` [Example 200, N-{[4-(but-2-ynyloxy)phenyl]sulfonyl}-1-(3,5-difluorobenzyl)-5-methoxy-2-methyltryptophan], the figure is 80.5%.
Take `CC#CCOc1ccc(S(=O)(=O)N[C@@H](Cc2c(C)n(Cc3ccc(C(F)(F)F)cc3)c3ccccc23)C(=O)O)cc1` [Example 150, N-{[4-(but-2-ynyloxy)phenyl]sulfonyl}-2-methyl-1-[4-(trifluoromethyl)benzyl]tryptophan]: the inhibition at 1 µM was 35.6%.
The same measure, in the same setting: as for `CC#CCOc1ccc(S(=O)(=O)N[C@@H](Cc2cn(Cc3ccccc3OC)c3ccc(OC)cc23)C(=O)O)cc1` [Example 51, N-{[4-(but-2-ynyloxy)phenyl]sulfonyl}-5-methoxy-1-(2-methoxybenzyl)tryptophan], the figure is 38.3%; as for `CC#CCOc1ccc(S(=O)(=O)N[C@@H](Cc2cn(Cc3cc(F)cc(F)c3)c3ccc(C(=O)O)cc23)C(=O)O)cc1` [Example 118, N-{[4-(but-2-ynyloxy)phenyl]sulfonyl}-5-carboxy-1-(3,5-difluorobenzyl)tryptophan], 5.98%.
Still for that read-out and setting: as for `CC#CCOc1ccc(S(=O)(=O)N[C@@H](Cc2c(C)n(Cc3ccccc3)c3ccccc23)C(=O)O)cc1` [Example 144, 1-benzyl-N-{[4-(but-2-ynyloxy)phenyl]sulfonyl}-2-methyltryptophan], the figure is 18.8%; as for `CC#CCOc1ccc(S(=O)(=O)N[C@@H](Cc2c(C)n(Cc3ccc(C(C)C)cc3)c3ccc(Cl)cc23)C(=O)O)cc1` [Example 97, N-{[4-(but-2-ynyloxy)phenyl]sulfonyl}-5-chloro-1-(4-isopropylbenzyl)-2-methyltryptophan], 21.9%.
As for `CC#CCOc1ccc(S(=O)(=O)N[C@@H](Cc2c(C)n(Cc3ccc(C(F)(F)F)cc3)c3ccc(Cl)cc23)C(=O)O)cc1` [Example 93, N-{[4-(but-2-ynyloxy)phenyl]sulfonyl}-5-chloro-2-methyl-1-[4-(trifluoromethyl)benzyl]tryptophan], the inhibition at 1 µM turned out to be 53.8%.
The same measure, in the same setting: as for `CC#CCOc1ccc(S(=O)(=O)N[C@@H](Cc2cn(Cc3ccc(C(C)C)cc3)c3ccc(Cl)cc23)C(=O)O)cc1` [Example 82, N-{[4-(but-2-ynyloxy)phenyl]sulfonyl}-5-chloro-1-(4-isopropylbenzyl)tryptophan], the figure is 5.26%; as for `CC#CCOc1ccc(S(=O)(=O)N[C@@H](Cc2cn(Cc3ccc(C(F)(F)F)cc3)c3ccc(Cl)cc23)C(=O)O)cc1` [Example 77, N-{[4-(but-2-ynyloxy)phenyl]sulfonyl}-5-chloro-1-[4-(trifluoromethyl)benzyl]tryptophan], 29.8%; as for `CC#CCOc1ccc(S(=O)(=O)N[C@@H](Cc2c(C)n(Cc3ccc(C)cc3)c3ccc(Cl)cc23)C(=O)O)cc1` [Example 92, N-{[4-(but-2-ynyloxy)phenyl]sulfonyl}-5-chloro-2-methyl-1-(4-methylbenzyl)tryptophan], 64%.
